System: Plasmodium falciparum
Assay: Antimalarial activity against Plasmodium falciparum Dd2 incubated for 72 hrs by SYBR green dye based assay
Type: functional, organism-based
Settings: Dd2, 72 h

Row | SMILES | EC50 [µM]
1 | C[C@]1(c2ccccc2)N[C@H](C(=O)O)Cc2c1[nH]c1ccccc21 | > 10
2 | Cc1ccc([C@H]2N[C@H](C(=O)O)Cc3c2[nH]c2ccccc32)c(Cl)c1 | 0.41
3 | Cc1ccc([C@H]2N[C@H](C(=O)O)Cc3c2[nH]c2ccccc32)c(C)c1 | 10
4 | Cn1c2c(c3ccccc31)C[C@@H](C(=O)O)N[C@@H]2c1ccc(Cl)cc1Cl | 8
5 | O=C(O)[C@@H]1Cc2c([nH]c3ccccc23)CN1Cc1ccc(Cl)cc1Cl | > 10
6 | O=C(O)[C@H](Cc1c[nH]c2ccccc12)NCc1ccc(Cl)cc1Cl | > 10
7 | O=C(O)[C@@H]1Cc2c([nH]c3ccccc23)[C@@H](c2ccc(Br)cc2Cl)N1 | 0.32
8 | C[C@]1(c2ccccc2Cl)N[C@H](C(=O)O)Cc2c1[nH]c1ccccc21 | > 10
9 | O=C(O)[C@@H]1Cc2c([nH]c3ccccc23)[C@]2(CCc3ccccc32)N1 | > 10
10 | C[C@]1(c2ccc(Cl)cc2)N[C@H](C(=O)O)Cc2c1[nH]c1ccccc21 | > 10
11 | C[C@]1(c2ccc(Cl)cc2Cl)N[C@H](C(=O)O)Cc2c1[nH]c1ccccc21 | > 10
12 | C[C@@]1(C(=O)O)Cc2c([nH]c3ccccc23)[C@@H](c2ccc(Cl)cc2Cl)N1 (racemic) | > 10

System: Plasmodium falciparum
Assay: Antimalarial activity against Plasmodium falciparum Dd2 at 10 uM incubated for 72 hrs by SYBR green dye based assay relative to control
Type: functional
Settings: not given

Row | SMILES | inhibition at 10 µM [%]
13 | CN1[C@H](c2ccc(Cl)cc2Cl)c2[nH]c3ccccc3c2C[C@H]1C(=O)O | 65

System: not listed separately
Assay: Inhibition of Plasmodium falciparum IspD
Settings: not given

Row | SMILES | IC50 [nM]
14 | Cc1ccc([C@H]2N[C@H](C(=O)O)Cc3c2[nH]c2ccccc32)c(Cl)c1 | 82
15 | Cc1ccc([C@H]2N[C@H](C(=O)O)Cc3c2[nH]c2ccccc32)c(C)c1 | 1000
16 | O=C(O)[C@@H]1Cc2c([nH]c3ccccc23)[C@@H](c2ccccc2)N1 | > 5000
17 | O=C(O)[C@@H]1Cc2c([nH]c3ccccc23)[C@@H](c2ccc(Br)cc2Cl)N1 | 34
18 | O=C(O)[C@@H]1Cc2c([nH]c3ccccc23)[C@@H](c2ccc(Cl)cc2)N1 | 510
19 | O=C(O)[C@@H]1Cc2c([nH]c3ccccc23)[C@@H](c2ccccc2Cl)N1 | 1000
20 | Cc1cc(Cl)ccc1[C@H]1N[C@H](C(=O)O)Cc2c1[nH]c1ccccc21 | 260

Source: ChEMBL document CHEMBL4699488, “Probing the B- & C-rings of the antimalarial tetrahydro-β-carboline MMV008138 for steric and conformational constraints” (Bioorg Med Chem Lett, 2020)
